Where only a bound is given, the exact number is not on record here.

For one test, the target named is T1, BRD4 BD1 (Homo sapiens, UniProt O60885).
T1 construct: made in house
The experiment in a line: AlphaScreen binding assay, BRD4 Bromodomain 1. In a few lines:
(§1)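 Compound dilution series were mixed with His-tagged BRD4 bromodomain and biotinylated tetra-acetylated H4 (1-21) peptide at pH 7.3 (BD1 and peptide at 50 nM, BD2 and peptide at 100 nM). Donor and acceptor beads were then added, and plates were equilibrated at least 1 h before reading. IC50 values were fitted with a four-parameter logistic model.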
Background: Bead proximity is the source of the signal in Alpha formats.

The test system of a further test is MV4-11 cells. The experiment in a line: Oncology cell growth assay (3-day proliferation, CellTiter-Glo). The note with it: Homo sapiens, MV4-11, 72 h, AML cell line MV4-11, 72 hours, compounds grouped by IC50 range, read-out: MV4-11 IC50 (inhibition of proliferation, gIC50). The class given is cell-based. The method, then: The impact of Example compounds on cancer cell proliferation was determined using the acute myelocytic leukemia (AML) cell line MV4-11 (ATCC) in a 3-day proliferation assay. MV4-11 cells were maintained in RPMI 1640 media supplemented with 10% FBS at 37° C. and an atmosphere of 5% CO2. For compound testing, compound dilutions series were prepared in DMSO via a 3-fold serial dilution from 2 mM to 0.001 mM in 384-well white flat bottom plates. The final compound concentrations in the wells were 10, 3.3, 1.1, 0.37, 0.12, 0.041, 0.013 and 0.0045 μM. MV4-11 cells were plated at a density of 3000 cells/well in final volume of 50 μl culture media and incubated for 72 hours. […] Luminescent signal from the CellTiter-Glo assay was read on an EnVision multilabel plate reader (PerkinElmer). Values for the concentration that inhibited cell growth by 50% (gIC50) between the DMSO control and background control (no cells) were determined using IDBS Activity Base software with a four parameter logistic curve fit by the equation y=A+((B−A)/(1+((C/x)^D))), wherein A denotes the bottom plateau of the curve, B denotes the top plateau of the curve, C denotes the x value at the middle of the curve, D denotes the slope factor, x denotes the original known x values, and y denotes the original known y values. Data was fitted using the Levenburg Marquardt algorithm.
(Cellular ATP, detected with luciferase, serves as a proxy for viable cell number.)

Another test addresses T2, BRD4 BD2 (Homo sapiens, UniProt O60885).
T2 construct: made in house
Put plainly: AlphaScreen binding assay, BRD4 Bromodomain 2. The gist of the method:
as §1

Consider `CC(=O)N1c2ccc(-c3cnn(C4CN[C@H]4C)c3)cc2N(C(=O)OC2CCC2)C[C@@H]1C` (stereo partly drawn) [Example I-178, cyclobutyl (3S)-4-acetyl-3-methyl-7-{1-[(2S)-2-methylazetidin-3-yl]-1H-pyrazol-4-yl}-1,2,3,4-tetrahydroquinoxaline-1-carboxylate], for which the IC50 lay within 100 to 1000 nM at BRD4 BD1 and 100 to 500 nM with MV4-11 cells.

With `CC(=O)N1c2ccc(-c3cnn([C@@H]4CCCS(=O)(=O)C4)c3)cc2N(C(=O)OCC2CC2)C[C@@H]1C` [Example I-171, cyclopropylmethyl (3S)-4-acetyl-7-{1-[(3R)-1,1-dioxo-1λ^6-thian-3-yl]-1H-pyrazol-4-yl}-3-methyl-1,2,3,4-tetrahydroquinoxaline-1-carboxylate], the IC50 is 100 to 1000 nM on BRD4 BD1 and more than 500 nM in the test on MV4-11 cells.

As to `CC(=O)N1c2ccc(-c3cnn(C4CCNC(=O)C4)c3)cc2N(C(=O)OC2CC(F)(F)C2)C[C@@H]1C` (stereo partly drawn) [Example I-164, 3,3-difluorocyclobutyl (3S)-4-acetyl-3-methyl-7-[1-(2-oxopiperidin-4-yl)-1H-pyrazol-4-yl]-1,2,3,4-tetrahydroquinoxaline-1-carboxylate], the IC50 at BRD4 BD1 was 100 to 1000 nM; in the test on MV4-11 cells it was more than 500 nM.

On to `CC(=O)N1c2ccc(-c3cnn(C4CCNC(=O)C4)c3)cc2N(C(=O)C2CC2)C[C@@H]1C` (stereo partly drawn) [Example I-167, 4-{4-[(2S)-1-acetyl-4-cyclopropanecarbonyl-2-methyl-1,2,3,4-tetrahydroquinoxalin-6-yl]-1H-pyrazol-1-yl}piperidin-2-one], for which the IC50 on BRD4 BD1 was in the range of 100 to 1000 nM; in the test with MV4-11 cells it was 100 to 500 nM.

For `CC(=O)N1c2ccc(-c3cnn(C4CN[C@H]4C)c3)cc2N(C(=O)OC(C)C)C[C@@H]1C` (stereo partly drawn) [Example I-159, propan-2-yl (3S)-4-acetyl-3-methyl-7-{1-[(2S)-2-methylazetidin-3-yl]-1H-pyrazol-4-yl}-1,2,3,4-tetrahydroquinoxaline-1-carboxylate], the IC50 was 100 to 1000 nM on BRD4 BD1 and less than 100 nM with MV4-11 cells.

Consider `CC(=O)N1c2ccc(-c3cnn(C4CCS(=O)(=O)CC4)c3)cc2N(C(=O)OC(C)C)C[C@@H]1C` [Example I-156, propan-2-yl (3S)-4-acetyl-7-[1-(1,1-dioxo-1λ^6-thian-4-yl)-1H-pyrazol-4-yl]-3-methyl-1,2,3,4-tetrahydroquinoxaline-1-carboxylate], for which the IC50 was 100 to 1000 nM on BRD4 BD1 and more than 500 nM in the test with MV4-11 cells.

For the compound `CC(=O)N1c2ccc(-c3cccc(-c4ncccn4)c3)cc2N(C(=O)c2ccco2)C[C@@H]1C` [Example I-405], the IC50 on BRD4 BD1 fell in the range of 1000 to 10000 nM; at BRD4 BD2, 50 to 500 nM.

Take `CC(=O)N1c2ccccc2N(Cc2ccc(OCCN(C)C)cc2)C[C@@H]1C` [Example I-907]: the IC50 is more than 10000 nM on BRD4 BD1 and more than 500 nM at BRD4 BD2.

In the case of `CC(=O)N1c2ccc(-c3ccc(S(C)(=O)=O)cc3)cc2N(C(=O)NCc2ccccc2Cl)C[C@@H]1C` [Example I-977], the IC50 was more than 10000 nM at BRD4 BD1 and more than 500 nM at BRD4 BD2.

In the case of `CC(=O)N1c2ccc(-c3ccc(S(C)(=O)=O)cc3)cc2N(C(=O)Nc2ccccc2C)C[C@@H]1C` [Example I-966], the IC50 on BRD4 BD1 is more than 10000 nM; on BRD4 BD2 it was more than 500 nM.

Take `COC(=O)N1c2ccc(-c3cnn(CC#N)c3)cc2N(C(=O)OC(C)C)C[C@@H]1C` [Example I-639]: the IC50 at BRD4 BD1 was 1000 to 10000 nM; at BRD4 BD2, more than 500 nM.

For `CC(=O)N1c2ccc(-c3cccnc3)cc2N(C(=O)c2ccco2)C[C@@H]1C` [Example I-819], the IC50 on BRD4 BD1 was 1000 to 10000 nM; at BRD4 BD2, 50 to 500 nM.

For the compound `CC(=O)N1c2ccccc2N(S(=O)(=O)c2cccc(C#N)c2)C[C@@H]1C` [Example I-944], the IC50 at BRD4 BD1 is more than 10000 nM; at BRD4 BD2, more than 500 nM.

Consider `CC(=O)N1c2ccc(-c3cnn(CC(N)=O)c3)cc2N(C(=O)C2CC2)C[C@@H]1C` [Example I-655], for which the IC50 was 1000 to 10000 nM at BRD4 BD1 and 50 to 500 nM at BRD4 BD2.

In the case of `COC(=O)N1c2ccc(-c3cnn(CCC#N)c3)cc2N(C(=O)Oc2ccccn2)C[C@@H]1C` [Example I-1327], the results for the IC50 on BRD4 BD1 and on BRD4 BD2 were 1000 to 10000 nM and 50 to 500 nM, respectively.

For `CC(=O)N1c2ccc(-c3cccc(-c4noc(C)n4)c3)cc2N(C(=O)c2ccco2)C[C@@H]1C` [Example I-402], the figures for the IC50 on BRD4 BD1 and at BRD4 BD2 were 1000 to 10000 nM and less than 50 nM, respectively.

Take `COc1cc(C(=O)N2C[C@H](C)N(C(C)=O)c3ccccc32)nc2ccccc12` [Example I-753]: the values for the IC50 on BRD4 BD1 and at BRD4 BD2 were more than 10000 nM and more than 500 nM, respectively.

Take `CCC[C@@H](C)CN1C[C@H](C)N(C(C)=O)c2ccccc21` [Example I-927]: the IC50 was more than 10000 nM on BRD4 BD1 and more than 500 nM at BRD4 BD2.

As for `CC(=O)N1c2ccc(-c3ccc(S(=O)(=O)C(F)(F)F)cc3)cc2N(C(=O)c2ccco2)C[C@@H]1C` [Example I-866], the results for the IC50 on BRD4 BD1 and at BRD4 BD2 were 1000 to 10000 nM and 50 to 500 nM, respectively.

As for `CC(=O)N1c2ccc(-c3cnn(C4CC4)c3)cc2N(C(=O)Oc2c(Cl)cc(Cl)c3cccnc23)C[C@@H]1C` [Example I-1197], the IC50 was in the range of 1000 to 10000 nM on BRD4 BD1 and 50 to 500 nM at BRD4 BD2.

Consider `C[C@H]1CN(C(=O)c2ccco2)c2cc(-c3ccc(S(C)(=O)=O)cc3)ccc2N1C(=O)C1CCCC1` [Example I-373], for which the figures for the IC50 on BRD4 BD1 and on BRD4 BD2 were more than 10000 nM and more than 500 nM, respectively.

As to `CC(=O)N1c2ccc(-c3ccc(OC(F)(F)F)cc3)cc2N(C(=O)c2ccco2)C[C@@H]1C` [Example I-808], the results for the IC50 at BRD4 BD1 and on BRD4 BD2 were 1000 to 10000 nM and 50 to 500 nM, respectively.

Turning to `CC(=O)N1c2ccc(-c3nnc(C)s3)cc2N(C(=O)c2ccco2)C[C@@H]1C` [Example I-403], the IC50 on BRD4 BD1 was in the range of 1000 to 10000 nM; at BRD4 BD2, 50 to 500 nM.

In the case of `CC(=O)N1c2ncc(-c3ccc(S(C)(=O)=O)cc3)cc2N(C(=O)c2ccco2)C[C@@H]1C` [Example I-271], the IC50 fell in the range of 1000 to 10000 nM on BRD4 BD1 and 50 to 500 nM at BRD4 BD2.

Turning to `CC(=O)N1c2ccccc2N(C(=O)c2ccc(Cl)cc2)C[C@@H]1C` [Example I-743], the results for the IC50 at BRD4 BD1 and on BRD4 BD2 were more than 10000 nM and more than 500 nM, respectively.

`CC(=O)N1c2ccc(-c3ccc(S(C)(=O)=O)cc3)cc2N(C(=O)c2ccc(S(C)(=O)=O)o2)C[C@@H]1C` [Example I-888]: the IC50 was more than 10000 nM on BRD4 BD1 and more than 500 nM on BRD4 BD2.

On to `CC(C)OC(=O)N1C[C@H](C)N(C(=O)C2CC2)c2ccc(-c3cnn(CC(=O)O)c3)cc21` [Example I-340], for which the values for the IC50 at BRD4 BD1 and at BRD4 BD2 were 1000 to 10000 nM and more than 500 nM, respectively.

For the compound `CC(=O)N1c2ccccc2N(S(=O)(=O)Cc2cccc(Cl)c2)C[C@@H]1C` [Example I-955], the IC50 is more than 10000 nM at BRD4 BD1 and more than 500 nM on BRD4 BD2.

In the case of `CC(=O)N1c2ccccc2N(C(=O)c2ccc(-n3cccn3)cc2)C[C@@H]1C` [Example I-723], the IC50 was more than 10000 nM at BRD4 BD1 and more than 500 nM at BRD4 BD2.

`CC(=O)N1c2ccccc2N(C(=O)C2CCCCC2)C[C@@H]1C` [Example I-697]: the IC50 at BRD4 BD1 was more than 10000 nM; on BRD4 BD2, more than 500 nM.

For the compound `CC(=O)N1c2ccc(-c3ccc(S(C)(=O)=O)cc3)cc2N(C(=O)c2ccc(CN)o2)C[C@@H]1C` [Example I-890], the IC50 fell in the range of 1000 to 10000 nM on BRD4 BD1 and 50 to 500 nM at BRD4 BD2.

As to `CC(=O)N1c2ccc(-c3cccc(-c4nnc(C)o4)c3)cc2N(C(=O)c2ccco2)C[C@@H]1C` [Example I-854], the figures for the IC50 on BRD4 BD1 and on BRD4 BD2 were 1000 to 10000 nM and 50 to 500 nM, respectively.

In the case of `CC(=O)N1c2ccc(-c3cnn(C4COC4)c3)cc2N(C(=O)OCC2CC2(C)C)C[C@@H]1C` (stereo partly drawn) [Example I-73, (2,2-dimethylcyclopropyl)methyl (3S)-4-acetyl-3-methyl-7-(1-(oxetan-3-yl)-1H-pyrazol-4-yl)-3,4-dihydroquinoxaline-1(2H)-carboxylate], the IC50 was in the range of 1000 to 10000 nM at BRD4 BD1 and 50 to 500 nM on BRD4 BD2.

Regarding `CC(=O)N1c2ccccc2N(C(=O)c2ccco2)C[C@@H]1C` [Example I-720], the figures for the IC50 on BRD4 BD1 and on BRD4 BD2 were more than 10000 nM and 50 to 500 nM, respectively.

On to `CC(=O)N1c2ccccc2N(C(=O)c2cc(C)c(C)o2)C[C@@H]1C` [Example I-750], for which the IC50 is more than 10000 nM at BRD4 BD1 and more than 500 nM on BRD4 BD2.

Regarding `CC(=O)N1c2ccc(-c3cnn(C4COC4)c3)cc2N(C(=O)CC(C)C)C[C@@H]1C` [Example I-105, (S)-1-(4-acetyl-3-methyl-7-(1-(oxetan-3-yl)-1H-pyrazol-4-yl)-3,4-dihydroquinoxalin-1 (2H)-yl)-3-methylbutan-1-one], the IC50 was more than 10000 nM on BRD4 BD1 and 50 to 500 nM on BRD4 BD2.

Turning to `CC(=O)N1c2ccc(-c3cnn(C4COC4)c3)cc2N(C(=O)OCC(F)F)C[C@@H]1C` [Example I-84, (S)-2,2-difluoroethyl 4-acetyl-3-methyl-7-(1-(oxetan-3-yl)-1H-pyrazol-4-yl)-3,4-dihydroquinoxaline-1(2H)-carboxylate], the figures for the IC50 at BRD4 BD1 and on BRD4 BD2 were 1000 to 10000 nM and more than 500 nM, respectively.
